Laboratory results published in patent US8415476B2, “Indazole having analgesic activity” (Aziende Chimiche Riunite Angelini Francesco A.C.R.A.F. …, priority 2003, dated 2013).

Legend:
[1] = system: mechanical hyperalgesia induced by CFA in the rat; assay: Mechanical hyperalgesia induced by CFA in the rat; format: in vivo; details: male CD rats, dose 10^-5 mol/kg, test 23 hours after injection of CFA, vehicle 121 ± 4.1, normal animals 155±2.1 g
From the text: 1. Mechanical Hyperalgesia Induced by CFA in the Rat
Male CD rats weighing 150-200 g on arrival were used. Using an analgesiometer, rats were selected having a response threshold to a mechanical nociceptive stimulus of from 150 to 180 g. By applying a gradual increase in pressure on the dorsal zone of the rat's left hind foot, the instrument makes it possible to record the nocifensive response, expressed in grams, corresponding to the moment when the animal retracts its foot [Randall L O and Semite J J. A method for the measurement of analgesic activity on inflamed tissue. Arch. Int. Pharmacodyn. Ther. 1957; 111: 409-419].
Hyperalgesia was induced by unilateral injection of 150 μl of Complete Freund's Adjuvant (CFA) in the plantar surface of the animal's left hind foot [Andrew D, Greenspan J D. Mechanical and heat sensitization of cutaneous nociceptors after peripheral inflammation in the rat. J Neurophysiol 1999; 82(5): 2649-2656; Hargreaves K, Dubner R, Brown R, Flores C, Joris J. A new and sensitive method for measuring thermal nociception in cutaneous hyperalgesia. Pain 1988; 32: 77-88].
The compounds under examination were tested (dose 10^−5 mol/kg) by carrying out the test 23 hours after injection of CFA.
At 1 h following the treatment, the pain threshold measured in control animals was compared with that measured in animals treated with the product under examination. The control animals were treated with the same vehicle (water) used for administering the products under examination.

[2] = system: mechanical hyperalgesia in rats with diabetes induced by streptozotocin; assay: Mechanical hyperalgesia in rats with diabetes induced by streptozotocin; format: in vivo, rat; details: male CD rats, streptozotocin 80 mg/kg i.p. diabetic neuropathy, dose 10^-5 mol/kg, vehicle 112 ± 4.0, normal animals 240±8.7 g
Description: The pain threshold of normal animals of equal weight/age=155±2.1 g 2. Mechanical Hyperalgesia in Rats with Diabetes Induced by Streptozotocin
Male CD rats weighing 240-300 g on arrival were used.
Diabetic syndrome was induced by a single intraperitoneal (i.p.) injection of 80 mg/kg of streptozotocin dissolved in sterile physiological solution [Courteix C, Eschalier A, Lavarenne J. Streptozotocin-induced diabetic rats: behavioural evidence for a model of chronic pain. Pain, 1993; 53: 81-88; Bannon A W, Decker M W, Kim Dj, Campbell J E, Arneric S P. ABT-594, a novel cholinergic channel modulator, is efficacious in nerve ligation and diabetic neuropathy models of neuropathic pain. Brain Res. 1998; 801: 158-63].
After at least three weeks following the injection of streptozotocin, rats were selected having a level of glycaemia ≧300 mg/dl and having a response threshold to a mechanical nociceptive stimulus ≦120 g. The glycaemia levels were measured by means of a reflectometer using reactive strips impregnated with glucose oxidase. The pain threshold was measured using an analgesiometer. By applying a gradual increase in pressure on the dorsal zone of the rat's left hind foot, the instrument makes it possible to record the nocifensive response, expressed in grams, corresponding to the moment when the animal retracts its foot.
At 2 h following the treatment, the pain threshold measured in control animals was compared with that measured in animals treated with the product under examination (dose 10^−5 mol/kg).
The control animals were treated with the same vehicle (water) used for administering the products under examination.

| SMILES | Pain threshold (g) 1 h after treatment [1] [g] | Pain threshold (g) 2 h after treatment [2] [g] | melting point |
| --- | --- | --- | --- |
| Cl.Cl.Nc1ccc(CCN2CCC(CNC(=O)c3n[nH]c4ccccc34)CC2)cc1 [AF3R302, N((1-(2-(4-aminophenyl)ethyl)-4-piperidinyl)methyl)-1H-indazole-3-carboxamide dihydrochloride] | 160 ± 10.2 | 164 ± 10.2 |  |
| Cl.Cn1nc(NC(=O)C2CCN(CCc3ccc(O)cc3)CC2)c2ccccc21 [AF3R330] | 161 ± 10.5 | 171 ± 9.6 |  |
| CC(C)n1nc(C(=O)NCC2CCN(CCc3ccc(N)cc3)CC2)c2ccccc21.Cl.Cl [AF3R294, N((1-(2-(4-aminophenyl)ethyl)-4-piperidinyl)methyl)-1-(1-methylethyl)-1H-indazole-3-carboxamide dihydrochloride] | 194 ± 22.4 | 198 ± 18.6 |  |
| Cc1ccc2c(c1)c(C(=O)NCC1CCN(CCc3ccc(O)cc3)CC1)nn2C(C)C.Cl [AF3R296, N((1-(2-(4-hydroxyphenyl)ethyl)-4-piperidinyl)methyl)-5-methyl-1-(1-methylethyl)-1H-indazole-3-carboxamide hydrochloride] | 151 ± 10.7 | 154 ± 8.7 |  |
| Cl.Cn1nc(NC(=O)C2CCN(CCc3ccccc3)CC2)c2ccccc21 [AF3R334, N-(1-methyl-1H-indazol-3-yl)-1-(2-phenylethyl)piperidine-4-carboxamide hydrochloride] | 170 ± 11.0 | 184 ± 10.5 | 235 to 237 °C |
| Cl.O=C(NCC1CCN(CCc2ccc([N+](=O)[O-])cc2)CC1)c1n[nH]c2ccccc12 [AF3R298, N((1-(2-(4-nitrophenyl)ethyl)-4-piperidinyl)methyl)-1H-indazole-3-carboxamide hydrochloride] | 174 ± 9.8 | 170 ± 10.2 |  |
| CC(C)n1nc(C(=O)NCC2CCN(CCc3ccc([N+](=O)[O-])cc3)CC2)c2ccccc21.O=C(O)C(=O)O [AF3R306, N((1-(2-(4-nitrophenyl)ethyl)-4-piperidinyl)methyl)-1-(1-methylethyl)-1H-indazole-3-carboxamide oxalate] | 186 ± 11.0 | 184 ± 13.8 |  |
| COc1ccc(CCN2CCC(C(=O)Nc3nn(C)c4ccccc34)CC2)cc1.Cl [AF3R328, N-(1-methyl-1H-indazol-3-yl)-1-(2-(4-methoxyphenyl)ethyl)piperidine-4-carboxamide hydrochloride] | 150 ± 8.7 | 158 ± 6.2 | 137 to 139 °C (dec.) |
